# Measured values: patent US20260174780A1, “BISMUTH-THIOL COMPOSITIONS AND METHODS FOR TREATING INFLAMMATORY DISEASES” (Microbion Corporation, priority 2022, published 2026)
# Entries after “also recorded” stand apart in the source; their conditions may differ.
# Key:
# AIM2 inflammasome [1] = assay: RT-qPCR of AIM2 inflammasome expression in THP-1 macrophages, uninfected or infected; format: cell-based
# Description: THP-1 macrophages were differentiated with 50 ng/ml PMA for 24 hours, followed by 24 hours in media prior to infection. Differentiated THP-1 macrophages were infected with M. avium or M. abscessus for 1 hour with an MOI of 5. Infected cells were washed twice, followed by 1 hour of antibiotic treatment with 200 μg/ml of amikacin to remove extracellular bacteria. After the antibiotic treatment step, cells were washed once more and BisEDT (BIZ) was added at the indicated concentrations. The treatments (see Table 2) included: (1) uninfected, (2) uninfected+range of BisEDT, (3) untreated+infected with M. avium, (4) M. avium infected+BIZ, (5) untreated+M. abscessus, and (6) M. abscessus infected+BIZ. The time points for sample preparation were 48 hours post infection. CFUs were determined as described above and RNA was collected from similar experiments.
# THP-1 RNA from the cells was isolated using the Rneasy mini kit (Qiagen), followed by treatment with Dnase 1 recombinant (Roche Diagnostics) for 1 hour at 37° C. to remove contaminating genomic DNA. The DNase was inactivated with Turbo DNase-inactivation reagent (Turbo DNA-free kit, Thermo Fisher Scientific) for 2 min at 37° C. Inactivation reagent was removed via centrifugation for 1 min at 10,000×g, and RNA transferred to new collection tubes. RNA samples were stored at […] for future processing. cDNA was transcribed from host RNA using the iScript cDNA synthesis kit (Bio-Rad). The quality of cDNA was tested by PCR with Gold 360 master mix using the manufacturer's specifications (Thermo Fisher Scientific). The RT-qPCR reaction was performed using iQ SYBR Green Supermix (Bio-Rad) and an iCycler (CFX Connect Real-Time Systems, Bio-Rad) as previously described (1). Standard curves for each gene were run in each reaction and used to calculate absolute values of mRNA. Gene expression data are presented as relative expression to beta-actin. Primers (Table 3) were designed in Primer3 using sequences from GenBank (National Center for Biotechnology Information).
# [2] = Tolerability of inhaled BisEDT in the M. abscessus mouse study; format: in vivo, SCID/Beige mice; conditions: inhaled 200 and 1000 μg/kg/day, 28 days
# Description: A nose-only inhalation exposure chamber from CH technologies was used for this experiment. Mice were split into four treatment groups, Vehicle (buffer containing no BisEDT), amikacin (100 μg/kg/day), BisEDT “low” (200 μg/kg/day), and BisEDT “high” (1000 μg/kg/day). Each treatment group consisted of 12 mice. Ten of these mice were used for CFU determination and two mice are used for histology/pathology/lung pharmacokinetics. Treatment was conducted 6 days a week over the course of 28 days total. To create the correct level of deposited dose of each drug tested, 10 mL of test article were made. Amikacin in HBSS at 20 mg/mL was made and stored at 4° C. until needed. BisEDT “high” at a concentration of 8 mg/mL was made once a week and stored at room temperature. BisEDT “low” was diluted from the 8 mg/mL to 1.6 mg/mL the day of treatment. Each treatment used an LC star reusable nebulizer from Pari. Animals were restrained and placed on the inhalation apparatus. The respiratory hose was connected to the inhalation apparatus and a compressor was connected to the nebulizer. The rate of air flow from the compressor to the nebulizer remained at 8.5 L/minute, which generated a nebulized fog that each mouse breathed in over 45 min.
# BEAS-2B cells = assay: Cytokine ELISA in BEAS-2B cells; format: cell-based, human; conditions: 0.5, 1, 2 or 4 μg/mL, 24 hours, compared to untreated cells
# Description: (§1) Protocol: BEAS-2B cells were grown in tissue culture flasks and a 24-well plate was seeded with 2×10^5 cells/well and incubated at 37° C. and 5% CO2 for 48 hours. Select wells were treated with either 4 μg/mL, 2 μg/mL, 1 μg/mL, or 0.5 μg/mL BisEDT or left untreated as a control and incubated at 37° C. and 5% CO2 for 24 hours. Cell culture supernatant was collected from each well and stored at −20° C. until further ELISA analysis. On the day of the ELISA assays to determine the expression of each cytokine, cell culture supernatant was thawed, and the assays performed following the manufacturer's instructions. Cells were collected for RNA isolation using Qiagen RNeasy kit using manufacturers' instructions. Briefly, genomic DNA was degraded with DNase (Roche) and samples were incubated at 37° C. for 1 hour followed by 3 μL DNase inactivation reagent (Invitrogen) incubated at 37° C. for 2 minutes. Samples were centrifuged at maximum speed for 5 minutes to remove the inactivation reagent. RNA concentration and quality was evaluated using a Nanodrop. RNA samples were utilized to generate cDNA using cDNA synthesis kit (Bio-Rad). qPCR for AIM2 and actin (housekeeping gene) was conducted using SYBR green kit (Bio-Rad) along with standards.
# AIM2 inflammasome [3] = assay: qPCR of AIM2 in BEAS-2B cells; format: cell-based, human; conditions: 0.5-4 μg/mL, 24 hours
# Description: as §1
# HUVEC cells = assay: Cytokine ELISA in HUVEC cells; format: cell-based, human; conditions: 0.5, 1, 2 or 4 μg/mL, 24 hours, compared to untreated cells
# Description: as §1, with “HUVEC” for “BEAS-2B”, “manufacturer's” for “manufacturers'”, “standard.” for “standards.”
smiles,measurement,setting,value
"C1C[S][Bi]([S]CC[S][Bi]2[S]CC[S]2)[S]1 [BisEDT, 1,2-(Bis(1,3-dithia-2-bismolane)thio)ethane]",AIM2 gene expression relative to beta-actin,AIM2 inflammasome [1]; M. abscessus infected THP-1 cells + 1 μg/ml BisEDT,even greater increase of expression
same,AIM2 gene expression relative to beta-actin,"AIM2 inflammasome [1]; M. avium infected THP-1 cells + BisEDT (2, 4 μg/ml)",did not change the gene expression
same,AIM2 gene expression relative to beta-actin,"AIM2 inflammasome [1]; uninfected THP-1 macrophages, 0.5-4 μg/ml BisEDT, 48 hours","The higher the dose, the more AIM2 gene expression was reduced; also recorded: inhibits AIM2 and NLRP3 inflammasome expression"
same,body weight at the end of treatment,[2],within the normal weight range
same,tolerability,[2],well tolerated
same,expression of IL-1β,BEAS-2B cells,Consistent reduction
same,expression of IL-10,BEAS-2B cells,consistent increase
same,expression of TNF-α,BEAS-2B cells,Consistent reduction
same,AIM2 inflammasome expression (AIM2/Actin copy number),AIM2 inflammasome [3],inhibit AIM2 inflammasome expression
same,expression of IL-18,HUVEC cells,Consistent reduction
same,expression of TNF-α,HUVEC cells,Consistent reduction
